Measured values reported in PubChem BioAssay (NCI).
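Assay format: 96-well plates, 48-hour exposure. The concentration for full growth arrest is given as TGI.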

Tested on: ACHN renal
Assay: NCI tumour cell line growth inhibition, 48 h

Structure (SMILES)	TGI [µM]
O=S(=O)(O)CCCc1cccc2ccccc12	> 100
CC(=O)OC1/C=C(\C)C(OC(C)=O)C/C=C(/C)CCC2C(/C=C/C1=O)C2(C)C (centres undefined)	> 100
NC(CCCCCP(=O)(c1ccccc1)C1C=CC=CC1)C(=O)O (centres undefined)	> 100
CO/N=C(\C)c1ccc(Nc2nc3ccccc3c3occc23)cc1	27.6
O=P(O)(O)CCP(=O)(O)O	> 100
O=c1sc2ccccc2n1CC1CS1 (centres undefined)	> 100
Cc1n(Cc2ccccc2)c2c([n+]1C)C(=O)c1ccccc1C2=O	11.4
O=C1c2cccc3c2C(=O)c2c(cccc21)OCCOCCOCCOCCO3	> 100
C=CCc1c(O)c2c(c3oc(=O)cc(C)c13)CC(C)O2 (centres undefined)	> 100
CN(C)c1ccc(/C=c2/c3ccccc3n3c2c2c([n+]3C)CCCC2)cc1	1.99
CC1(C)OC(C(=O)Nc2cc3c4ccccc4ccc3c3ccccc23)C(C(=O)N2CCCCC2)O1 (centres undefined)	> 100
CCN(CC)CCNc1ccc2nnn3c4ccc(OCCN(CC)CC)cc4c(=O)c1c23	> 100
COc1cc2c(cc1OC)C(CC1=C(c3ccccc3)CN3CCc4cc(OC)c(OC)cc4C3C1)NCC2 (centres undefined)	42.3
CC(=O)Nc1ccc(N=Nc2c(O)c(S(=O)(=O)O)cc3cc(S(=O)(=O)O)ccc23)cc1	> 100
Nc1c(C(=O)O)nnc2ccc(Cl)cc12	> 100
O=C(O)C(O)C(O)C(O)C(O)c1nc2ccccc2s1 (centres undefined)	33.2

Tested on: BT-549 breast
Assay: NCI tumour cell line growth inhibition, 48 h

Structure (SMILES)	TGI [µM]
O=S(=O)(O)CCCc1cccc2ccccc12	> 100
NC(CCCCCP(=O)(c1ccccc1)C1C=CC=CC1)C(=O)O (centres undefined)	> 100
CO/N=C(\C)c1ccc(Nc2nc3ccccc3c3occc23)cc1	31
O=P(O)(O)CCP(=O)(O)O	> 100
Cc1n(Cc2ccccc2)c2c([n+]1C)C(=O)c1ccccc1C2=O	0.234
CN(C)c1ccc(/C=c2/c3ccccc3n3c2c2c([n+]3C)CCCC2)cc1	2.19
CCOc1ncn(-c2ccc(NC(=S)Nc3ncccn3)cc2)n1	71.1
CC1(C)OC(C(=O)Nc2cc3c4ccccc4ccc3c3ccccc23)C(C(=O)N2CCCCC2)O1 (centres undefined)	> 100
CCN(CC)CCNc1ccc2nnn3c4ccc(OCCN(CC)CC)cc4c(=O)c1c23	> 100
CC(=O)Nc1ccc(N=Nc2c(O)c(S(=O)(=O)O)cc3cc(S(=O)(=O)O)ccc23)cc1	> 100
Nc1c(C(=O)O)nnc2ccc(Cl)cc12	> 100
O=C(O)C(O)C(O)C(O)C(O)c1nc2ccccc2s1 (centres undefined)	63.2

Tested on: DMS 114 small cell lung
Assay: NCI tumour cell line growth inhibition, 48 h

Structure (SMILES)	TGI [µM]
CCCC(=O)OCC1OC(n2ccc(N)nc2=O)C(OC(=O)CCC)C1OC(=O)CCC (centres undefined)	> 100
COc1ccc(/C=C2\CCNC2=O)cc1	> 100
CC(C)Cc1ccc(C(C)C(=O)N2CCN(/C=C/c3ccccc3)CC2)cc1 (centres undefined)	24.6
O=c1cc[nH]c(=O)[nH]1	> 1000
O=c1sc2ccccc2n1CC1CS1 (centres undefined)	> 100
O=C1c2cccc3c2C(=O)c2c(cccc21)OCCOCCOCCOCCO3	> 100
C=CCc1c(O)c2c(c3oc(=O)cc(C)c13)CC(C)O2 (centres undefined)	> 100
COc1cc2c(cc1OC)C(CC1=C(c3ccccc3)CN3CCc4cc(OC)c(OC)cc4C3C1)NCC2 (centres undefined)	30.3

Tested on: EKVX NSCLC
Assay: NCI tumour cell line growth inhibition, 48 h

Structure (SMILES)	TGI [µM]
CCCC(=O)OCC1OC(n2ccc(N)nc2=O)C(OC(=O)CCC)C1OC(=O)CCC (centres undefined)	16.8
O=S(=O)(O)CCCc1cccc2ccccc12	> 100
CC(=O)OC1/C=C(\C)C(OC(C)=O)C/C=C(/C)CCC2C(/C=C/C1=O)C2(C)C (centres undefined)	> 100
NC(CCCCCP(=O)(c1ccccc1)C1C=CC=CC1)C(=O)O (centres undefined)	> 100
COc1ccc(/C=C2\CCNC2=O)cc1	> 80.9
CC(C)Cc1ccc(C(C)C(=O)N2CCN(/C=C/c3ccccc3)CC2)cc1 (centres undefined)	35
CO/N=C(\C)c1ccc(Nc2nc3ccccc3c3occc23)cc1	27.5
O=c1cc[nH]c(=O)[nH]1	488
O=P(O)(O)CCP(=O)(O)O	> 100
O=c1sc2ccccc2n1CC1CS1 (centres undefined)	> 100
Cc1n(Cc2ccccc2)c2c([n+]1C)C(=O)c1ccccc1C2=O	1.01
O=C1c2cccc3c2C(=O)c2c(cccc21)OCCOCCOCCOCCO3	> 100
C=CCc1c(O)c2c(c3oc(=O)cc(C)c13)CC(C)O2 (centres undefined)	> 100
CN(C)c1ccc(/C=c2/c3ccccc3n3c2c2c([n+]3C)CCCC2)cc1	0.353
CCOc1ncn(-c2ccc(NC(=S)Nc3ncccn3)cc2)n1	> 100
CC1(C)OC(C(=O)Nc2cc3c4ccccc4ccc3c3ccccc23)C(C(=O)N2CCCCC2)O1 (centres undefined)	> 100
CCN(CC)CCNc1ccc2nnn3c4ccc(OCCN(CC)CC)cc4c(=O)c1c23	> 100
COc1cc2c(cc1OC)C(CC1=C(c3ccccc3)CN3CCc4cc(OC)c(OC)cc4C3C1)NCC2 (centres undefined)	38.8
CC(=O)Nc1ccc(N=Nc2c(O)c(S(=O)(=O)O)cc3cc(S(=O)(=O)O)ccc23)cc1	> 100
Nc1c(C(=O)O)nnc2ccc(Cl)cc12	> 100
O=C(O)C(O)C(O)C(O)C(O)c1nc2ccccc2s1 (centres undefined)	35.8

Tested on: HCC-2998 colon
Assay: NCI tumour cell line growth inhibition, 48 h

Structure (SMILES)	TGI [µM]
CCCC(=O)OCC1OC(n2ccc(N)nc2=O)C(OC(=O)CCC)C1OC(=O)CCC (centres undefined)	> 100
O=S(=O)(O)CCCc1cccc2ccccc12	> 100
CC(=O)OC1/C=C(\C)C(OC(C)=O)C/C=C(/C)CCC2C(/C=C/C1=O)C2(C)C (centres undefined)	> 100
COc1ccc(/C=C2\CCNC2=O)cc1	> 100
CC(C)Cc1ccc(C(C)C(=O)N2CCN(/C=C/c3ccccc3)CC2)cc1 (centres undefined)	31.8
CO/N=C(\C)c1ccc(Nc2nc3ccccc3c3occc23)cc1	30.4
O=c1cc[nH]c(=O)[nH]1	528
O=c1sc2ccccc2n1CC1CS1 (centres undefined)	> 100
Cc1n(Cc2ccccc2)c2c([n+]1C)C(=O)c1ccccc1C2=O	1.45
O=C1c2cccc3c2C(=O)c2c(cccc21)OCCOCCOCCOCCO3	> 100
C=CCc1c(O)c2c(c3oc(=O)cc(C)c13)CC(C)O2 (centres undefined)	> 100
CN(C)c1ccc(/C=c2/c3ccccc3n3c2c2c([n+]3C)CCCC2)cc1	0.375
CCOc1ncn(-c2ccc(NC(=S)Nc3ncccn3)cc2)n1	46
CC1(C)OC(C(=O)Nc2cc3c4ccccc4ccc3c3ccccc23)C(C(=O)N2CCCCC2)O1 (centres undefined)	> 100
CCN(CC)CCNc1ccc2nnn3c4ccc(OCCN(CC)CC)cc4c(=O)c1c23	> 100
COc1cc2c(cc1OC)C(CC1=C(c3ccccc3)CN3CCc4cc(OC)c(OC)cc4C3C1)NCC2 (centres undefined)	22.7
Nc1c(C(=O)O)nnc2ccc(Cl)cc12	> 100

Tested on: HL-60(TB) leukemia
Assay: NCI tumour cell line growth inhibition, 48 h

Structure (SMILES)	TGI [µM]
CCCC(=O)OCC1OC(n2ccc(N)nc2=O)C(OC(=O)CCC)C1OC(=O)CCC (centres undefined)	25.1
O=S(=O)(O)CCCc1cccc2ccccc12	> 100
NC(CCCCCP(=O)(c1ccccc1)C1C=CC=CC1)C(=O)O (centres undefined)	> 100
COc1ccc(/C=C2\CCNC2=O)cc1	> 100
CC(C)Cc1ccc(C(C)C(=O)N2CCN(/C=C/c3ccccc3)CC2)cc1 (centres undefined)	18.7
